For series [1], the system named is HL-60, BXPC-3, U266 and BGC-823 cells. Put plainly: In vitro anti-tumor activity (IC50), summary over the four tumor cell lines. Type of series: cell-based. The text has this: According to the results of aforementioned preliminary anti-tumor activities screening tests, those compounds which have better anti-tumor activities were selected to measure their IC50 values on four types of tumor cell lines: HL-60 (promyelocytic leukemia cell strain), BXPC-3 (human pancreatic cancer cell strain), U266 (multiple myeloma cell strain) and BGC-823 (human gastric carcinoma cell strain). HL-60, BXPC-3 and U266 were obtained from the American Type Culture Collection (Manassas, Va.), and BGC-823 (human gastric carcinoma cell strain) was obtained from China Pharmaceutical University.
(§1) Test methods: HL-60 cells were cultured in IMDM medium containing 20% fetal bovine serum at 37° C. in 5% CO2; BGC-823 cells and BXPC-3 cells were cultured in RPMI1640 medium containing 10% fetal bovine serum at 37° C. in 5% CO2; U266 cells were cultured in RPMI1640 medium containing 15% fetal bovine serum at 37° C. in 5% CO2.
The cell growth was measured by the standard MTT method. […] The precipitates were dissolved in 100 μL of DMSO, and absorbance was read with an Infinite M200 (Tecan, Austria) microplate reader at 540 nm.
(§2) The result was expressed as IC50 value, which is the average value of three independent determinations.

Series [2] concerns HL-60 (promyelocytic leukemia cell strain). Put plainly: In vitro anti-tumor activity (IC50), standard MTT method. Type of series: cell-based. The conditions noted are these: Homo sapiens, 72 h, average of three determinations. Here is the method: (§3) HL-60, BXPC-3 and U266 were obtained from the American Type Culture Collection (Manassas, Va.), and BGC-823 (human gastric carcinoma cell strain) was obtained from China Pharmaceutical University.
as §1
(§4) The cell growth was measured by the standard MTT method. A dispersions (150 μL, containing 3000 cells) medium was added into each well of a 96-well plate and allowed to grow, after 24 h, ten kinds of medium (50 μL) containing different concentrations of drugs were added into the corresponding wells, and continued to incubate for 72 h. Then a solution containing 5 mg/ml MTT (20 μL) was added into each well and incubated for another 4 h at 37° C. The plate was then centrifugated at 1000 rpm at 4° C. for 5 min, and the medium in upper layer was carefully discarded. The precipitates were dissolved in 100 μL of DMSO, and absorbance was read with an Infinite M200 (Tecan, Austria) microplate reader at 540 nm.
as §2

Series [3] deals with BGC-823 (human gastric carcinoma cell strain). The description is as above. The conditions noted are these: 72 h, average of three determinations. Type of series: cell-based. Here is the method: as §3, §1, §4, §2
In series [4] the test system is U266 (multiple myeloma cell strain). The series is described as above. The conditions noted are these: Homo sapiens, U-266, 72 h, average of three determinations. Type of series: cell-based. The method, then:
as §3, §1, §4, §2

Series [5] concerns BXPC-3 (human pancreatic cancer cell strain). Described as above. Type of series: cell-based. As to conditions: 72 h, average of three determinations. The method, then: as §3, §1, §4, §2

`CC(C)C[C@H](NC(=O)[C@H](Cc1ccc2ccccc2c1)NC(=O)[C@H](CC(C)C)NC(=O)c1cnccn1)B(O)O` [Compound 6f, N-pyrazineformyl-L-leucyl-L-naphthylalanyl-L-leucine Boronic Acid] showed a melting point of 157 to 159 °C. In addition, in series [1], the “Inhibition of growth of three types of cells, compared with PS341” value was “better than those of PS341”. Moreover, the IC50 in series [2] was found to be 4.6 nM. This molecule displayed an IC50 in series [3] of 600 nM. Further, in series [4], half-maximal inhibition (IC50) was put at 9.9 nM. In series [5], this molecule displayed an IC50 of 21.2 nM.

In the case of `CC(C)C[C@H](NC(=O)[C@H](Cc1ccc2ccccc2c1)NC(=O)[C@H](Cc1ccccc1)NC(=O)c1cnccn1)B(O)O` [Compound 6g, N-pyrazineformyl-L-phenylalanyl-L-naphthylalanyl-L-leucine Boronic Acid], the IC50 in series [2] amounted to 7.4 nM; in series [3] it was 1040 nM; in series [4] it was 15.8 nM; in series [5], 28.7 nM.
